Earlier results in patent US9631212B2, “Gene cluster for biosynthesis of cornexistin and hydroxycornexistin” (BASF SE, priority 2012, dated 2017).
Like-named read-outs stand apart in the source and are kept apart here.

What was measured:
[1] = in vivo
[2] = system: corn plants

| Compound | activity as a herbicide [1] | activity towards corn plants [2] | activity as a herbicide ([1]; listed as Cornexistin) | activity towards corn plants ([2]; listed as Cornexistin) |
| --- | --- | --- | --- | --- |
| CCC[C@H]1C2=C(C/C(=C/CO)[C@@H](O)CC(=O)[C@H]1O)C(=O)OC2=O [hydroxycornexistin] | highly potent herbicides | harmless to corn plants |  |  |
| C/C=C1/CC2=C(C(=O)OC2=O)[C@H](CCC)[C@H](O)C(=O)C[C@@H]1O [cornexistin] | highly potent herbicides | harmless to corn plants | good activity as a herbicide | relative inactivity towards corn plants |
